According to PubChem BioAssay (NCI):
“And” between values parts separate entries of the source, which are not always exact repeats. Equal entries are not always repeated.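 Exposure lasted 48 hours, with cells grown in 96-well plates and compounds tested at five concentrations. Abbreviation: GI50, concentration required for 50% inhibition of growth. TGI denotes the concentration required for complete inhibition of growth.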 Where a SMILES comes first, the peptide text is derived from it. [ ]: non-standard residue; d: D form. Aoe = N[C@@H](CCCCCC(=O)[C@@H]1CO1)C(=O)O

Legend:
Assay in all cases: NCI-60 cell line screen, 48 h
SN12C renal = tested on: SN12C renal
UACC-62 melanoma = tested on: UACC-62 melanoma
OVCAR-5 ovarian = tested on: OVCAR-5 ovarian
SF-268 CNS = tested on: SF-268 CNS
MCF7 breast = tested on: MCF7 breast
U251 CNS = tested on: U251 CNS
KM12 colon = tested on: KM12 colon
ACHN renal = tested on: ACHN renal
RXF 393 renal = tested on: RXF 393 renal
OVCAR-8 ovarian = tested on: OVCAR-8 ovarian
MDA-MB-435 = tested on: MDA-MB-435
CCRF-CEM leukemia = tested on: CCRF-CEM leukemia
A498 renal = tested on: A498 renal
K-562 leukemia = tested on: K-562 leukemia
TK-10 renal = tested on: TK-10 renal
IGROV1 ovarian = tested on: IGROV1 ovarian
OVCAR-3 ovarian = tested on: OVCAR-3 ovarian
MOLT-4 leukemia = tested on: MOLT-4 leukemia
UACC-257 melanoma = tested on: UACC-257 melanoma
RPMI-8226 leukemia = tested on: RPMI-8226 leukemia
NCI-H226 lung = tested on: NCI-H226 lung
CAKI-1 renal = tested on: CAKI-1 renal
NCI-H460 lung = tested on: NCI-H460 lung
NCI/ADR-RES ovarian = tested on: NCI/ADR-RES ovarian
HCC-2998 colon = tested on: HCC-2998 colon
HS 578T breast = tested on: HS 578T breast
UO-31 renal = tested on: UO-31 renal
SW-620 colon = tested on: SW-620 colon
786-0 renal = tested on: 786-0 renal
BT-549 breast = tested on: BT-549 breast
SR leukemia = tested on: SR leukemia
M14 melanoma = tested on: M14 melanoma
SF-539 CNS = tested on: SF-539 CNS
PC-3 prostate = tested on: PC-3 prostate
HCT-15 colon = tested on: HCT-15 colon
SF-295 CNS = tested on: SF-295 CNS
SK-MEL-2 melanoma = tested on: SK-MEL-2 melanoma
NCI-H522 lung = tested on: NCI-H522 lung
MDA-MB-231 breast = tested on: MDA-MB-231 breast
HOP-62 NSCLC = tested on: HOP-62 NSCLC
NCI-H23 lung = tested on: NCI-H23 lung
EKVX NSCLC = tested on: EKVX NSCLC
SK-MEL-5 melanoma = tested on: SK-MEL-5 melanoma
A549 NSCLC = tested on: A549 NSCLC
SNB-19 CNS = tested on: SNB-19 CNS
HCT-116 colon = tested on: HCT-116 colon
SK-MEL-28 melanoma = tested on: SK-MEL-28 melanoma
HOP-92 NSCLC = tested on: HOP-92 NSCLC
HT29 colon = tested on: HT29 colon
COLO 205 colon = tested on: COLO 205 colon
OVCAR-4 ovarian = tested on: OVCAR-4 ovarian
LOX IMVI melanoma = tested on: LOX IMVI melanoma
SK-OV-3 ovarian = tested on: SK-OV-3 ovarian
DU-145 prostate = tested on: DU-145 prostate

`NC(N)=N/N=C/c1c(-c2cc(Cl)sc2Cl)nc2sccn12` was tested, and the GI50 (SN12C renal) was 642 nM, the TGI (SN12C renal) was 1.41 µM and the GI50 (UACC-62 melanoma) was 752 nM. For the same molecule, the TGI (UACC-62 melanoma) was 1.46 µM, the GI50 (OVCAR-5 ovarian) was 956 nM and the TGI (OVCAR-5 ovarian) was 2.05 µM. The GI50 (SF-268 CNS) was 1260 nM, the TGI (SF-268 CNS) was 3.9 µM and the GI50 (MCF7 breast) was 843 nM. It also gave a TGI (MCF7 breast) of 2050 nM, a GI50 (U251 CNS) of 799 nM and a TGI (U251 CNS) of 1560 nM. The GI50 (KM12 colon) was 1040 nM, the TGI (KM12 colon) was 2750 nM and the GI50 (ACHN renal) was 703 nM. The TGI (ACHN renal) was 1.41 µM, the GI50 (RXF 393 renal) was 3.52 µM and the TGI (RXF 393 renal) was 13.7 µM. It also gave a GI50 (OVCAR-8 ovarian) of 1040 nM, a TGI (OVCAR-8 ovarian) of 2.84 µM and a GI50 (MDA-MB-435) of 4.03 µM. It also gave a TGI (MDA-MB-435) of 15.1 µM, a GI50 (CCRF-CEM leukemia) of 807 nM and a TGI (CCRF-CEM leukemia) of 1680 nM. It also gave a GI50 (A498 renal) of 1.54 µM, a TGI (A498 renal) of 10.2 µM and a GI50 (K-562 leukemia) of 1320 nM. For the same molecule, the TGI (K-562 leukemia) was 3.14 µM, the GI50 (TK-10 renal) was 1290 nM and the TGI (TK-10 renal) was 2780 nM. The GI50 (IGROV1 ovarian) was 1140 nM, the TGI (IGROV1 ovarian) was 8.08 µM and the GI50 (OVCAR-3 ovarian) was 1270 nM. It also gave a TGI (OVCAR-3 ovarian) of 3.4 µM, a GI50 (MOLT-4 leukemia) of 912 nM and a TGI (MOLT-4 leukemia) of 1910 nM. For the same molecule, the GI50 (UACC-257 melanoma) was 8600 nM, the TGI (UACC-257 melanoma) was 17.6 µM and the GI50 (RPMI-8226 leukemia) was 744 nM. It also gave a TGI (RPMI-8226 leukemia) of 1610 nM, a GI50 (NCI-H226 lung) of 7.89 µM and a TGI (NCI-H226 lung) of 18.9 µM. The GI50 (CAKI-1 renal) was 7.65 µM, the TGI (CAKI-1 renal) was 16.3 µM and the GI50 (NCI-H460 lung) was 1430 nM. The TGI (NCI-H460 lung) was 4.4 µM, the GI50 (NCI/ADR-RES ovarian) was 7.71 µM and the TGI (NCI/ADR-RES ovarian) was 15.4 µM. For the same molecule, the GI50 (HCC-2998 colon) was 854 nM, the TGI (HCC-2998 colon) was 1560 nM and the GI50 (HS 578T breast) was 890 nM. For the same molecule, the TGI (HS 578T breast) was 2770 nM, the GI50 (UO-31 renal) was 2000 nM and the TGI (UO-31 renal) was greater than 50 µM. It also gave a GI50 (SW-620 colon) of 1000 nM, a TGI (SW-620 colon) of 2430 nM and a GI50 (786-0 renal) of 924 nM. It also gave a TGI (786-0 renal) of 1790 nM, a GI50 (BT-549 breast) of 1140 nM and a TGI (BT-549 breast) of 2550 nM. For the same molecule, the GI50 (SR leukemia) was 1350 nM, the TGI (SR leukemia) was 2680 nM and the GI50 (M14 melanoma) was greater than 50 µM. It also gave a TGI (M14 melanoma) greater than 50 µM, a GI50 (SF-539 CNS) of 969 nM and a TGI (SF-539 CNS) of 1720 nM. It also gave a GI50 (PC-3 prostate) of 1550 nM, a TGI (PC-3 prostate) of 6.15 µM and a GI50 (HCT-15 colon) of 1010 nM. The TGI (HCT-15 colon) was 2.87 µM, the GI50 (SF-295 CNS) was 1620 nM and the TGI (SF-295 CNS) was 6.15 µM. The GI50 (SK-MEL-2 melanoma) was 2720 nM, the TGI (SK-MEL-2 melanoma) was greater than 50 µM and the GI50 (NCI-H522 lung) was 1760 nM. The TGI (NCI-H522 lung) was greater than 50 µM, the GI50 (MDA-MB-231 breast) was 751 nM and the TGI (MDA-MB-231 breast) was 1750 nM. It also gave a GI50 (HOP-62 NSCLC) of 2070 nM, a TGI (HOP-62 NSCLC) of 7.24 µM and a GI50 (NCI-H23 lung) of 7500 nM. The TGI (NCI-H23 lung) was 14900 nM, the GI50 (EKVX NSCLC) was 3.72 µM and the TGI (EKVX NSCLC) was 13.1 µM. It also gave a GI50 (SK-MEL-5 melanoma) of 729 nM, a TGI (SK-MEL-5 melanoma) of 1560 nM and a GI50 (A549 NSCLC) of 2170 nM. It also gave a TGI (A549 NSCLC) of 11.3 µM.

For `Oc1ccc(N=C2CCC(=C(c3ccccc3)c3ccc(Nc4ccc(O)cc4)cc3)CC2)cc1`, the TGI (SNB-19 CNS) was greater than 100 µM, the TGI (SN12C renal) was greater than 100 µM and the TGI (HCT-116 colon) was greater than 100 µM. For the same molecule, the TGI (SK-MEL-28 melanoma) was greater than 100 µM, the TGI (UACC-62 melanoma) was greater than 100 µM and the TGI (OVCAR-5 ovarian) was greater than 100 µM. It also gave a TGI (SF-268 CNS) greater than 100 µM, a TGI (MCF7 breast) greater than 100000 nM and a TGI (U251 CNS) greater than 100000 nM. It also gave a TGI (KM12 colon) greater than 100000 nM, a TGI (HOP-92 NSCLC) greater than 100000 nM and a TGI (ACHN renal) greater than 100 µM. The TGI (RXF 393 renal) was greater than 100 µM, the TGI (OVCAR-8 ovarian) was greater than 100 µM and the TGI (HT29 colon) was greater than 100 µM. The TGI (MDA-MB-435) was greater than 100 µM, the TGI (COLO 205 colon) was greater than 100 µM and the TGI (CCRF-CEM leukemia) was greater than 100000 nM. It also gave a TGI (A498 renal) greater than 100 µM, a TGI (K-562 leukemia) greater than 100 µM and a TGI (TK-10 renal) greater than 100000 nM. It also gave a TGI (OVCAR-4 ovarian) greater than 100 µM, a TGI (MOLT-4 leukemia) greater than 100000 nM and a TGI (UACC-257 melanoma) greater than 100 µM. For the same molecule, the TGI (RPMI-8226 leukemia) was greater than 100000 nM, the TGI (NCI-H226 lung) was greater than 100 µM and the TGI (CAKI-1 renal) was greater than 100 µM. It also gave a TGI (NCI-H460 lung) greater than 100 µM, a TGI (NCI/ADR-RES ovarian) greater than 100 µM and a TGI (HCC-2998 colon) greater than 100000 nM. For the same molecule, the TGI (UO-31 renal) was greater than 100 µM, the TGI (LOX IMVI melanoma) was greater than 100 µM and the TGI (SW-620 colon) was greater than 100000 nM. It also gave a TGI (786-0 renal) greater than 100000 nM, a TGI (SR leukemia) greater than 100000 nM and a TGI (M14 melanoma) greater than 100 µM. For the same molecule, the TGI (SF-539 CNS) was greater than 100000 nM, the TGI (PC-3 prostate) was greater than 100 µM and the TGI (SK-OV-3 ovarian) was greater than 100 µM. It also gave a TGI (HCT-15 colon) greater than 100 µM, a TGI (SF-295 CNS) greater than 100 µM and a TGI (SK-MEL-2 melanoma) greater than 100 µM. It also gave a TGI (NCI-H522 lung) greater than 100 µM, a TGI (MDA-MB-231 breast) greater than 100000 nM and a TGI (NCI-H23 lung) greater than 100000 nM. The TGI (DU-145 prostate) was greater than 100 µM, the TGI (SK-MEL-5 melanoma) was greater than 100000 nM and the TGI (A549 NSCLC) was greater than 100 µM.

In the case of `O=C1N[C@@H](Cc2ccccc2)C(=O)N2CCC[C@@H]2C(=O)N[C@@H](CCCCCC(=O)[C@@H]2CO2)C(=O)N[C@H]1Cc1ccccc1` (cyclo(FF[dP][Aoe])), the TGI (HOP-92 NSCLC) is reported as 1600 nM, the GI50 (UACC-257 melanoma) is reported as 0.732 nM and 2.14 nM and the TGI (NCI-H226 lung) is reported as greater than 2.13 µM. The GI50 (NCI-H23 lung) was 4.26 nM and 6.89 nM and the TGI (NCI-H23 lung) was 2120 nM and 458 nM.

Molecule `CCCCCCCCCCCCC[C@H](O)C[C@H](O)[C@H](C)N` has a GI50 (SN12C renal) of 1920 nM, a TGI (SN12C renal) of 3.38 µM and a GI50 (UACC-62 melanoma) of 1870 nM. It also gave a TGI (UACC-62 melanoma) of 3.27 µM, a GI50 (OVCAR-5 ovarian) of 1950 nM and a TGI (OVCAR-5 ovarian) of 3.42 µM. The GI50 (ACHN renal) was 1860 nM, the TGI (ACHN renal) was 3.3 µM and the GI50 (OVCAR-8 ovarian) was 3490 nM. It also gave a TGI (OVCAR-8 ovarian) greater than 100 µM, a GI50 (A498 renal) of 6.19 µM and a TGI (A498 renal) of 47.1 µM. The GI50 (OVCAR-4 ovarian) was 2250 nM, the TGI (OVCAR-4 ovarian) was 5.52 µM and the GI50 (NCI-H460 lung) was 1630 nM. The TGI (NCI-H460 lung) was 3.87 µM, the GI50 (SK-OV-3 ovarian) was 14.6 µM and the TGI (SK-OV-3 ovarian) was 40.9 µM. It also gave a GI50 (HCT-15 colon) of 1650 nM and a TGI (HCT-15 colon) of 3.11 µM.
